One test addresses PI3Kα (Homo sapiens (Human), UniProt P42336). As to conditions: read-out: PI3Kα AlphaScreen ® Ki. A general note: In Alpha technology, singlet oxygen from a donor bead excites a nearby acceptor bead.
The test system of test [1] is phosphorylation of Akt at Serine 473 in U87 MG cells. Description: cells. As to conditions: Homo sapiens, U-87 MG, 2 h, read-out: U87Cell IC50, pAkt (Ser 473), U87 MG cells, two hours with compound.

Sequence of PI3Kα (P42336 whole entry): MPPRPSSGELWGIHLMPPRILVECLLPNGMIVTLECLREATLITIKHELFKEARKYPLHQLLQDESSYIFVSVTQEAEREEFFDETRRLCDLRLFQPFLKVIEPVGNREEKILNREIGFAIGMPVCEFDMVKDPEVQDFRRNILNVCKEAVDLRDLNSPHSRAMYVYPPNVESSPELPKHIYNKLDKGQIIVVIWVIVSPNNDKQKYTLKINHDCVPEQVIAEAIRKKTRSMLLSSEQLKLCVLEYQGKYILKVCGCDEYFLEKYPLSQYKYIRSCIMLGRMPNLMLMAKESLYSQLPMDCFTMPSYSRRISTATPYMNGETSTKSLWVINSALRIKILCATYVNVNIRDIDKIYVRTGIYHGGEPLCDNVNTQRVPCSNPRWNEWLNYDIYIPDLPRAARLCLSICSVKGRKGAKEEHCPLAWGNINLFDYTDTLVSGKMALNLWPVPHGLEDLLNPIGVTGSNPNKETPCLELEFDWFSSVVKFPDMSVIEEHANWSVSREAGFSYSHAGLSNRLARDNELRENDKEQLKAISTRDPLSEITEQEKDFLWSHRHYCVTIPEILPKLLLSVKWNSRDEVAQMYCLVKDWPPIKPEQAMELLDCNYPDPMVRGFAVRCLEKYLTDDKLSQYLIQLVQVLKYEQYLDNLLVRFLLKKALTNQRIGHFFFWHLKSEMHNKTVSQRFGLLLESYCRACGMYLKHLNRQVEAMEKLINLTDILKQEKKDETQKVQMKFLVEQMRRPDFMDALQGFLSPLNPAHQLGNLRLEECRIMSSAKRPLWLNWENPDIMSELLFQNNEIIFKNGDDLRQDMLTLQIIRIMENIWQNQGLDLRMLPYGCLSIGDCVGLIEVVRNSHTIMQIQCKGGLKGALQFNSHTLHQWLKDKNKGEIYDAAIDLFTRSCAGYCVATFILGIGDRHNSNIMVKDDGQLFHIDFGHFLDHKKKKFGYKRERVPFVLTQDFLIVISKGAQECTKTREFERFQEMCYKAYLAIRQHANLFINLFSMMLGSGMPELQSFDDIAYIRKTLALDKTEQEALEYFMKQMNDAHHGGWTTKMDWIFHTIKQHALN
Sequence of PI3Kα (P27986 whole entry partner): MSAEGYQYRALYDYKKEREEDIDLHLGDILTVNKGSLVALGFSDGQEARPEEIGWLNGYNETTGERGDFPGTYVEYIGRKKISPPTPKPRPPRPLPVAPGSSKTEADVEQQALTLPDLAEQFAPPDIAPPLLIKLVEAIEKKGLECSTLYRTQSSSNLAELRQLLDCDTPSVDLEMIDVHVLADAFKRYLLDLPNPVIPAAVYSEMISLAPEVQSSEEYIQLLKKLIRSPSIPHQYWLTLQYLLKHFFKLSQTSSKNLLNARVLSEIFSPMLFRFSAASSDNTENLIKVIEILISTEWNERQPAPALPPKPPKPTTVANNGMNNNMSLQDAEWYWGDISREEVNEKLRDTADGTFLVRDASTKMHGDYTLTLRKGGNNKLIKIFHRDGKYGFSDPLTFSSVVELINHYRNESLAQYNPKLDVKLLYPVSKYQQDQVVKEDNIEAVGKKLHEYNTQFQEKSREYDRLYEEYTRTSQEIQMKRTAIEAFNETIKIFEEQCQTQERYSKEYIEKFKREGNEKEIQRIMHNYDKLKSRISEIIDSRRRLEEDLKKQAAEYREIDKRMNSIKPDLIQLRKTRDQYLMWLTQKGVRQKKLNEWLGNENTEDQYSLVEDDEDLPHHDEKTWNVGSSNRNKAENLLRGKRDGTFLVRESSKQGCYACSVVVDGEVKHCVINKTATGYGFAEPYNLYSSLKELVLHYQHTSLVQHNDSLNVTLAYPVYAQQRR

The Ki is the equilibrium dissociation constant of an inhibitor or competing ligand from its target. The term IC50 denotes the point on the concentration scale where inhibition reaches its midpoint. In the case of `COc1ncc(Nc2ncc(C(C)N3CCN(S(C)(=O)=O)CC3)nc2-c2cc(N)nc(C)n2)cc1F` (stereo not shown) [Example 283, 6-(3-(5-Fluoro-6-Methoxypyridin-3-Ylamino)-6-(1-(4-(Methylsulfonyl)Piperazin-1-yl)Ethyl)Pyrazin-2-yl)-2-Methylpyrimidin-4-Amine], at PI3Kα, the Ki is 3 nM. The IC50 in test [1] turned out to be 4 nM. Turning to `CNc1nc(C)nc(-c2cc(CN3CCN(S(C)(=O)=O)CC3)cnc2Nc2ccc(OC)nc2)n1` [Example 163, 4-(2-(6-Methoxypyridin-3-Ylamino)-5-((4-(Methylsulfonyl)Piperazin-1-yl)Methyl)Pyridin-3-yl)-N,6-Dimethyl-1,3,5-Triazin-2-Amine], the Ki on PI3Kα was 7 nM. Further, in test [1], the IC50 amounted to 30 nM.

Consider `COc1ccc(Nc2ccncc2-c2nc(C)nc3[nH]cnc23)cn1` [Example 111, 6-methoxy-N-(3-(2-methyl-9H-purin-6-yl)pyridin-4-yl)pyridin-3-amine], for which the inhibition constant Ki on PI3Kα was determined as 252 nM. Besides, the half-inhibitory concentration (IC50) in test [1] was found to be 1170 nM. Consider `Cc1nc(N)nc(-c2cccnc2Nc2cccc(OC(F)F)c2)n1` [Example 164, 4-(2-(3-(Difluoromethoxy)Phenylamino)Pyridin-3-yl)-6-Methyl-1,3,5-Triazin-2-Amine], for which the Ki on PI3Kα was found to be 963 nM. The IC50 in test [1] was more than 10000 nM. `COc1ccc(Nc2ncc(CN3CCOC[C@@H]3C)cc2-c2nc(C)nc(N)n2)cn1` [Example 219, (S)-4-(2-(6-Methoxypyridin-3-Ylamino)-5-((3-Methylmorpholino)Methyl)Pyridin-3-yl)-6-Methyl-1,3,5-Triazin-2-Amine]: the Ki on PI3Kα came to 93 nM. Further, in test [1], the IC50 was 295 nM.

`COc1ccc(Nc2ncc(CN3CC(N)C3)cc2-c2nc(C)nc(N)n2)cn1` [Example 231, 4-(5-((3-Aminoazetidin-1-yl)Methyl)-2-(6-Methoxypyridin-3-Ylamino)Pyridin-3-yl)-6-Methyl-1,3,5-Triazin-2-Amine]: the Ki at PI3Kα was 446 nM. In test [1], the IC50 turned out to be 404 nM. For the molecule `COc1ccc(Nc2ncc([C@@H](O)C(F)(F)F)cc2-c2nc(C)nc(N)n2)cn1` [Example 322, (R)-1-(5-(4-amino-6-methyl-1,3,5-triazin-2-yl)-6-(6-methoxypyridin-3-ylamino)pyridin-3-yl)-2,2,2-trifluoroethanol], the Ki at PI3Kα is 86 nM. In addition, the IC50 in test [1] worked out at 51 nM. For `COc1ccc(Nc2nccnc2-c2nc(C)nc(N)n2)cn1` [Example 114, 4-(3-(6-methoxypyridin-3-ylamino)pyrazin-2-yl)-6-methyl-1,3,5-triazin-2-amine], the Ki at PI3Kα came to 327 nM.

On to `COc1cnc(Nc2cnc(Cl)c(N)c2)c(-c2nc(C)nc(N)n2)c1` [Example 368, N5-(3-(4-Amino-6-Methyl-1,3,5-Triazin-2-yl)-5-Methoxypyridin-2-yl)-2-Chloropyridine-3,5-Diamine], for which, on PI3Kα, the Ki stood at 270 nM. Moreover, the IC50 in test [1] was 117 nM. For `COc1ncc(Nc2ncc([C@H](C)N3CCOCC3)cc2-c2cc(N)nc(C)n2)cc1F` [Example 275, 6-(2-((5-Fluoro-6-Methoxy-3-Pyridinyl)Amino)-5-((1S)-1-(4-Morpholinyl)Ethyl)-3-Pyridinyl)-2-Methyl-4-Pyrimidinamine] the same measures were 32 nM and 18 nM. As to `COCCOc1ccc(-c2nc(C)nc(N)n2)c(Nc2cnc(OC)c(F)c2)n1` [Example 259, 4-(2-(5-Fluoro-6-Methoxypyridin-3-Ylamino)-6-(2-Methoxyethoxy)Pyridin-3-yl)-6-Methyl-1,3,5-Triazin-2-Amine], the Ki on PI3Kα is 81 nM. Further, in test [1], the IC50 came out at 190 nM. For `COc1ncc(Nc2ncc([C@@H](C)N3CCOCC3)cc2-c2cc(N)nc(C)n2)cc1F` [Example 276, 6-(2-((5-Fluoro-6-Methoxy-3-Pyridinyl)Amino)-5-((1R)-1-(4-Morpholinyl)Ethyl)-3-Pyridinyl)-2-Methyl-4-Pyrimidinamine] the same measures were 17 nM and 91 nM. `COc1ccc(Nc2ncc(CN3CCOCC3=O)cc2-c2nc(C)nc(N)n2)cn1` [Example 154, 4-((5-(4-Amino-6-Methyl-1,3,5-Triazin-2-yl)-6-((6-Methoxy-3-Pyridinyl)Amino)-3-Pyridinyl)Methyl)-3-Morpholinone]: the Ki on PI3Kα stood at 33 nM. Moreover, the IC50 in test [1] was 79 nM.

`COc1ccc(Nc2nc(N3CCCCC3)ncc2-c2nc(C)nc(N)n2)cn1` [Example 123, 4-(4-(6-methoxypyridin-3-ylamino)-2-(piperidin-1-yl)pyrimidin-5-yl)-6-methyl-1,3,5-triazin-2-amine]: at PI3Kα, the Ki came to 102 nM. For the same molecule, the IC50 in test [1] was more than 10000 nM. Turning to `COc1ncc(Nc2ncc(C(O)C(F)(F)F)cc2-c2nc(C)nc(N)n2)cc1F` (stereo not shown) [Example 314, 1-(5-(4-Amino-6-Methyl-1,3,5-Triazin-2-yl)-6-(5-Fluoro-6-Methoxypyridin-3-Ylamino)Pyridin-3-yl)-2,2,2-Trifluoroethanol], the inhibitory constant (Ki) at PI3Kα was found to be 17 nM. Regarding `COc1ncc(Nc2ncc(C(C)(C)O)cc2-c2nc(C)nc(N)n2)cc1F` [Example 273, 2-(5-(4-Amino-6-Methyl-1,3,5-Triazin-2-yl)-6-(5-Fluoro-6-Methoxypyridin-3-Ylamino)Pyridin-3-yl)Propan-2-ol], the Ki on PI3Kα stood at 4 nM. `COc1ncc(Nc2ncc(C(C)(C)CO)cc2-c2nc(C)nc(N)n2)cc1F` [Example 311, 2-(5-(4-amino-6-methyl-1,3,5-triazin-2-yl)-6-(5-fluoro-6-methoxypyridin-3-ylamino)pyridin-3-yl)-2-methylpropan-1-ol]: the Ki at PI3Kα stood at 8 nM. `COc1ncc(Nc2ncc(C(C)CO)cc2-c2nc(C)nc(N)n2)cc1F` (stereo not shown) [Example 312, 2-(5-(4-amino-6-methyl-1,3,5-triazin-2-yl)-6-(5-fluoro-6-methoxypyridin-3-ylamino)pyridin-3-yl)propan-1-ol]: the Ki on PI3Kα is 2 nM. For `Cc1nc(N)nc(-c2cc(C(C)(C)O)cnc2Nc2cncc(F)c2)n1` [Example 352, 2-(5-(4-Amino-6-Methyl-1,3,5-Triazin-2-yl)-6-(5-Fluoropyridin-3-Ylamino)Pyridin-3-yl)Propan-2-ol], on PI3Kα, the Ki is 23 nM.

`Nc1cc(-c2cccnc2Nc2cccc3[nH]ncc23)nc(C(F)(F)F)n1` [Example 21, N-(3-(6-Amino-2-(Trifluoromethyl)Pyrimidin-4-yl)Pyridin-2-yl)-1H-Indazol-4-Amine]: the Ki on PI3Kα worked out at 3140 nM. Turning to `COc1cncc(Nc2ncc(C(C)(C)O)cc2-c2nc(C)nc(N)n2)c1` [Example 353, 2-(5-(4-Amino-6-Methyl-1,3,5-Triazin-2-yl)-6-(5-Methoxypyridin-3-Ylamino)Pyridin-3-yl)Propan-2-ol], the Ki at PI3Kα came out at 15 nM. Turning to `COc1ccc(Nc2ncncc2-c2nc(C)nc(N)n2)cn1` [Example 117, 4-(4-(6-methoxypyridin-3-ylamino)pyrimidin-5-yl)-6-methyl-1,3,5-triazin-2-amine], the Ki on PI3Kα was 18 nM. `COc1ccc(Nc2ccccc2-c2nc(C)nc(N)n2)cn1` [Example 239, 4-(2-(6-Methoxypyridin-3-Ylamino)Phenyl)-6-Methyl-1,3,5-Triazin-2-Amine]: the Ki on PI3Kα came out at 396 nM. Take `Cc1nc(N)nc(-c2cc(CN3CCOCC3)cnc2Nc2cnc(Cl)c(NS(=O)(=O)N(C)C)c2)n1` [Example 333, N′-(5-((3-(4-Amino-6-Methyl-1,3,5-Triazin-2-yl)-5-(4-Morpholinylmethyl)-2-Pyridinyl)Amino)-2-Chloro-3-Pyridinyl)-N,N-Dimethylsulfamide]: the Ki on PI3Kα is 7 nM. On the same count and under the same terms, the result for `Cc1nc(N)nc(-c2cc(CN3CCOCC3)cnc2Nc2cnc(Cl)c(NS(C)(=O)=O)c2)n1` [Example 332, N-(5-(3-(4-Amino-6-Methyl-1,3,5-Triazin-2-yl)-5-(Morpholinomethyl)Pyridin-2-Ylamino)-2-Chloropyridin-3-yl)Methanesulfonamide] reads 4 nM; that for `Cc1nc(N)c(F)c(-c2cccnc2Nc2cccc3[nH]ncc23)n1` [Example 29, N-(3-(6-Amino-5-Fluoro-2-Methylpyrimidin-4-yl)Pyridin-2-yl)-1H-Indazol-4-Amine], 802 nM. Regarding `COc1ccc(Nc2cnccc2-c2nc(C)nc(N)n2)cn1` [Example 115, 4-(3-(6-methoxypyridin-3-ylamino)pyridin-4-yl)-6-methyl-1,3,5-triazin-2-amine], the Ki on PI3Kα stood at 868 nM.

For `COc1ccc(Nc2nccnc2-c2cc(N)nc(C)n2)cn1` [Example 116, 6-(3-(6-methoxypyridin-3-ylamino)pyrazin-2-yl)-2-methylpyrimidin-4-amine], on PI3Kα, the Ki worked out at 59 nM.

For `Cc1nc(-c2cccnc2Nc2ccc(NC(=O)C3CC3)cc2)c2nc[nH]c2n1` [Example 182, N-(4-(3-(2-Methyl-9H-Purin-6-yl)Pyridin-2-Ylamino)Phenyl)Cyclopropanecarboxamide], in test [1], the IC50 was found to be 92 nM. As for `Cc1nc(N)nc(-c2cc(C(C)(C)O)cnc2Nc2cncc(S(=O)(=O)c3ccccc3)c2)n1` [Example 356, 2-(5-(4-Amino-6-Methyl-1,3,5-Triazin-2-yl)-6-(5-(Phenylsulfonyl)Pyridin-3-Ylamino)Pyridin-3-yl)Propan-2-ol], the Ki at PI3Kα was 58 nM.

For `COc1ccc(Nc2nc(-c3ccncc3)ncc2-c2nc(C)nc(N)n2)cn1` [Example 124, 4-(4-(6-methoxypyridin-3-ylamino)-2-(pyridin-4-yl)pyrimidin-5-yl)-6-methyl-1,3,5-triazin-2-amine], in test [1], the IC50 was more than 10000 nM. `Cc1nc(N)cc(-c2cc([C@@H](C)N3CCOCC3)cnc2Nc2cnc(Cl)c(NS(=O)(=O)N(C)C)c2)n1` [Example 381, (R)—N-(2-Chloro-5-(3-(6-Amino-2-Methylpyrimidin-4-yl)-5-(1-Morpholinoethyl)Pyridin-2-Ylamino)Pyridin-3-yl)-N,N-Dimethylaminosulfamide]: in test [1], the IC50 turned out to be 40 nM.

With `COc1ncc(Nc2ncccc2-c2nc(C)nc(N)n2)cc1F` [Example 246, 4-(2-(5-Fluoro-6-Methoxypyridin-3-Ylamino)Pyridin-3-yl)-6-Methyl-1,3,5-Triazin-2-Amine], the Ki on PI3Kα worked out at 19 nM.

The values above are taken from US8772480B2, “Inhibitors of PI3 kinase and/or mTOR” (priority 2009, dated 2014).
